# Experimental data taken from US9808469B2, “Antitumor activity of multi-kinase inhibitors in triple negative breast cancer” (ENTRECHEM, S.L, priority 2014, dated 2017).
# Read-outs that look alike come from different tables or passages of the source.
# Tested on: HS578T cells
# Experiment: MTT metabolization, inhibition of HS578T cell proliferation
# Assay type: cell-based
# Conditions: Homo sapiens, Hs-578T, read-out: Percentage inhibition Formula (III) mean
# Procedure: These triple negative breast cancer cell lines were obtained from the American Type Culture Collection Cell Biology Collection (ATCC) (Manassas, Va.). The medium was changed every 2 days.
# Cell proliferation and growth experiments were carried out using 3-(4,5-dimethylthiazol-2-yl)-2,5-diphenyltetrazolium bromide (MTT) uptake assays, where MTT is reduced to purple formazan by the mitochondria of living cells. Increase in cell number is detected by augmented MTT metabolization, and decrease in cell number is reflected by a decrease. […] The cells were treated with the drug at different concentrations to plot the dose-response curves in all cancer cell lines using in the study. […] After treatment, each well was replaced with 250 μL of fresh medium containing MTT ([…]) and incubated for 1 hour. The medium was then removed and 500 μL of dimethyl sulfoxide was added to each well. The plate was agitated in the dark for 5 minutes to dissolve the MTT-formazan crystals. The absorbance of the samples was recorded at 562 nm in a multi-well plate reader (BMG labtech). Results were plotted as the mean values of quadruplicates from a representative experiment that was repeated at least two independent times.
# Combination index values less than 1 indicate synergism, values equal to 1 indicate an additive effect, whereas values greater than 1 indicate antagonism. Combination index values from three independent experiments were generated.
structure (smiles),measurement,setting,value
C[C@]12O[C@H](C[C@@H](O)[C@H]1O)n1c3ccccc3c3c4c(c5c6ccccc6n2c5c31)C(=O)NC4=O [Formula (III)],percent inhibition of cell proliferation at 0.1 µM,Formula (III) 100 nM alone (Table 14),76.2%
same,percent inhibition of cell proliferation at 0.1 µM,Formula (III) 100 nM alone (Table 15),93.5%
same,percent inhibition of cell proliferation at 0.12 µM,Formula (III) 120 nM alone (Table 12),74.9%
same,percent inhibition of cell proliferation at 0.12 µM,Formula (III) 120 nM alone,74.9%
same,percent inhibition of cell proliferation at 0.18 µM,Formula (III) 180 nM alone (Table 12),67.5%
same,percent inhibition of cell proliferation at 0.18 µM,Formula (III) 180 nM alone,67.5%
same,percent inhibition of cell proliferation at 0.2 µM,Formula (III) 200 nM alone (Table 13),67.8%
same,percent inhibition of cell proliferation at 0.2 µM,Formula (III) 200 nM alone (Table 14),72.4%
same,percent inhibition of cell proliferation at 0.2 µM,Formula (III) 200 nM alone (Table 15),77.6%
same,percent inhibition of cell proliferation at 0.24 µM,Formula (III) 240 nM alone (Table 12),50.8%
same,percent inhibition of cell proliferation at 0.24 µM,Formula (III) 240 nM alone,50.8%
same,percent inhibition of cell proliferation at 0.26 µM,Formula (III) 260 nM alone (Table 13),59.9%
same,percent inhibition of cell proliferation at 0.3 µM,Formula (III) 300 nM alone (Table 12),46.8%
same,percent inhibition of cell proliferation at 0.3 µM,Formula (III) 300 nM alone (Table 13),52.2%
same,percent inhibition of cell proliferation at 0.3 µM,Formula (III) 300 nM alone (Table 14),66.3%
same,percent inhibition of cell proliferation at 0.3 µM,Formula (III) 300 nM alone (Table 15),72.3%
same,percent inhibition of cell proliferation at 0.3 µM,Formula (III) 300 nM alone,46.8%
same,percent inhibition of cell proliferation at 0.38 µM,Formula (III) 380 nM alone (Table 13),48.9%
same,percent inhibition of cell proliferation at 0.4 µM,Formula (III) 400 nM alone (Table 14),57.4%
same,percent inhibition of cell proliferation at 0.4 µM,Formula (III) 400 nM alone (Table 15),66.6%
